Data reported in ChEMBL document CHEMBL1201861, “Genomics of Drug Sensitity in Cancer screening data, Wellcome Trust Sanger Institute”.

What was measured:
Format in all cases: functional, cell-based
C-4-II = test: SANGER: Inhibition of human C-4-II cell growth in a cell viability assay.
NCI-H2227 = test: cells; conditions: Homo sapiens;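 further: growth inhibition of the human cell line, read out with a cell viability assay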
Description: SANGER: Inhibition of human NCI-H2227 cell growth in a cell viability assay.

DMS-53 = test: cells; conditions: Homo sapiens;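 further: cell viability assay measuring growth inhibition of human DMS-53 cells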
Description: SANGER: Inhibition of human DMS-53 cell growth in a cell viability assay.

NCI-H1618 = test: cells; conditions: Homo sapiens;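 further: growth inhibition of human NCI-H1618 cells, measured by a cell viability assay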
Description: SANGER: Inhibition of human NCI-H1618 cell growth in a cell viability assay.

HCC1143 = test: cells; conditions: Homo sapiens;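 further: growth inhibition of human HCC1143 cells, read out with a cell viability assay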
Description: SANGER: Inhibition of human HCC1143 cell growth in a cell viability assay.

NCI-H838 = test: cells; conditions: Homo sapiens;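 further: growth inhibition of human NCI-H838 cells, read out by a cell viability assay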
Description: SANGER: Inhibition of human NCI-H838 cell growth in a cell viability assay.

MFE-296 = test: SANGER: Inhibition of human MFE-296 cell growth in a cell viability assay.
Caov-4 = test: cells; conditions: Homo sapiens
Description: SANGER: Inhibition of human Caov-4 cell growth in a cell viability assay.

EFE-184 = test: cells; conditions: Homo sapiens
Description: SANGER: Inhibition of human EFE-184 cell growth in a cell viability assay.

SNU-475 = test: cells; conditions: Homo sapiens
Description: SANGER: Inhibition of human SNU-475 cell growth in a cell viability assay.

MES-SA = test: cells; conditions: Homo sapiens;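 further: growth inhibition of human MES-SA cells, read out with a cell viability assay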
Description: SANGER: Inhibition of human MES-SA cell growth in a cell viability assay.

COLO 205 = test: cells; conditions: Homo sapiens
Description: SANGER: Inhibition of human COLO-205 cell growth in a cell viability assay.

SNG-M = test: cells; conditions: Homo sapiens
Description: SANGER: Inhibition of human SNG-M cell growth in a cell viability assay.

ECC12 = test: cells; conditions: Homo sapiens
Description: SANGER: Inhibition of human ECC12 cell growth in a cell viability assay.

RL95-2 = test: cells; conditions: Homo sapiens;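 further: RL95-2 growth inhibition determined through a cell viability readout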
Description: SANGER: Inhibition of human RL95-2 cell growth in a cell viability assay.

DV-90 = test: cells; conditions: Homo sapiens;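 further: Read-out is a viability assay, with IC50 reflecting the drop in DV-90 cell growth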
Description: SANGER: Inhibition of human DV-90 cell growth in a cell viability assay.

Caov-3 cell line = test: cells; conditions: Homo sapiens;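 further: cell growth inhibition read out by a viability assay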
Description: SANGER: Inhibition of human Caov-3 cell growth in a cell viability assay.

NCI-H1734 = test: cells; conditions: Homo sapiens;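 further: growth inhibition of human NCI-H1734 cells, read out with a cell viability assay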
Description: SANGER: Inhibition of human NCI-H1734 cell growth in a cell viability assay.

TT = test: cells; conditions: Homo sapiens
Description: SANGER: Inhibition of human TT cell growth in a cell viability assay.

SK-CO-1 = test: cells; conditions: Homo sapiens;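 further: growth inhibition of SK-CO-1 cells, determined by a viability readout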
Description: SANGER: Inhibition of human SK-CO-1 cell growth in a cell viability assay.

MDA-MB-468 = test: cells; conditions: Homo sapiens
Description: SANGER: Inhibition of human MDA-MB-468 cell growth in a cell viability assay.

PLC-PRF-5 = test: cells; conditions: Homo sapiens;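 further: growth inhibition of human PLC-PRF-5 cells, read out with a viability assay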
Description: SANGER: Inhibition of human PLC-PRF-5 cell growth in a cell viability assay.

CCF-STTG1 = test: cells; conditions: Homo sapiens;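 further: growth inhibition of human CCF-STTG1 cells, determined with a cell viability read-out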
Description: SANGER: Inhibition of human CCF-STTG1 cell growth in a cell viability assay.

`CC(C)=CC[C@@H](O)C1=CC(=O)c2c(O)ccc(O)c2C1=O` [SHIKONIN] was tested, and the IC50 (C-4-II) was 588 nM, the IC50 (NCI-H2227) was 4890 nM and the IC50 (DMS-53) was > 16000 nM. For the same compound, the IC50 (NCI-H1618) was 2020 nM, the IC50 (HCC1143) was 530 nM and the IC50 (NCI-H838) was > 16000 nM. For the same compound, the IC50 (MFE-296) was 662 nM, the IC50 (Caov-4) was 1880 nM and the IC50 (EFE-184) was 544 nM. For the same compound, the IC50 (SNU-475) was 14100 nM, the IC50 (MES-SA) was 41.3 nM and the IC50 (COLO 205) was 538 nM. It also gave an IC50 (SNG-M) of 272 nM, an IC50 (ECC12) of 9650 nM and an IC50 (RL95-2) of 720 nM. For the same compound, the IC50 (DV-90) was > 16000 nM, the IC50 (Caov-3 cell line) was 767 nM and the IC50 (NCI-H1734) was 6900 nM. The IC50 (TT) was 1700 nM, the IC50 (SK-CO-1) was 2050 nM and the IC50 (MDA-MB-468) was 967 nM. It also gave an IC50 (PLC-PRF-5) of 1820 nM and an IC50 (CCF-STTG1) of 768 nM.
